Patent publication US9249129B2, “Morpholino substituted urea derivatives as mTOR inhibitors” (CELLZOME LIMITED, priority 2010, dated 2016)
pIC50: −log10 of the molar value. Where two headings read alike, the source gives them in different places.

What was measured:
Format in all cases: binding
mTOR = biological target: T1, mTOR (Homo sapiens, UniProt P42345); test: mTOR kinobeads assay (dot blot detection)
T1 construct: endogenous in cells; host or cells: Jurkat cells (ATCC TIB-152, clone E6-1), lysate
In short: (§1)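 Jurkat cell lysate (5 mg/ml protein) was incubated with test compounds and kinobeads (immobilized phenylthiazole and phenylmorpholin-chromen ligands) for 2 h in the cold with shaking. Bead-bound kinase was SDS-eluted and quantified by antibody dot blot with infrared detection. IC50 values came from dose-response curves.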

[1] = biological target: T2, DNA-dependent protein kinase (DNA-PK) (Homo sapiens, UniProt P78527); test: kinobeads assay, DNA-PK (dot blot detection)
T2 construct: endogenous in cells; host or cells: Jurkat cells (ATCC TIB-152, clone E6-1), lysate
In short: as §1

kinases (kinome) [2] = biological target: T3, kinases (kinome) (Homo sapiens, UniProt Q14289); test: kinobeads assay with mass spectrometry detection of kinases (kinase selectivity profile); conditions: PYK2 (TK), IPI00029702
T3 construct: determined in kinobeads assays with mass spectrometry detection of kinases as described previously; endogenous in cells; host or cells: cell lysate
Excerpt: (§2) The protein kinase complement of the human genome (the kinome) was described previously (Manning et al., 2002. Science 298(5600):1912-1934). Sequence accession numbers are defined by the International Protein Index (IPI) (Kersey et al., 2004. Proteomics 4(7):1985-1988).

kinases (kinome) [3] = biological target: T4, kinases (kinome) (Homo sapiens, UniProt O60885); test: as above; conditions: BRD4 (Atypical), IPI00440727
T4 construct: determined in kinobeads assays with mass spectrometry detection of kinases as described previously; endogenous in cells; host or cells: cell lysate
Excerpt: as §2

kinases (kinome) [4] = biological target: T5, kinases (kinome) (Homo sapiens, UniProt P49674); test: as above; conditions: CK1e (CK1), IPI00027729
T5 construct: determined in kinobeads assays with mass spectrometry detection of kinases as described previously; endogenous in cells; host or cells: cell lysate
Excerpt: as §2

kinases (kinome) [5] = biological target: kinases (kinome) (Homo sapiens, UniProt Q15418); test: as above; conditions: RSK3 (AGC), IPI00477982
Excerpt: as §2

kinases (kinome) [6] = biological target: T6, kinases (kinome) (Homo sapiens, UniProt Q15059); test: as above; conditions: BRD3 (Atypical), IPI00014266
T6 construct: determined in kinobeads assays with mass spectrometry detection of kinases as described previously; endogenous in cells; host or cells: cell lysate
Excerpt: as §2

kinases (kinome) [7] = biological target: T7, kinases (kinome) (Homo sapiens, UniProt Q14680); test: as above; conditions: MELK (CAMK), IPI00006471
T7 construct: determined in kinobeads assays with mass spectrometry detection of kinases as described previously; endogenous in cells; host or cells: cell lysate
Excerpt: as §2

kinases (kinome) [8] = biological target: T8, kinases (kinome) (Homo sapiens, UniProt P29597); test: as above; conditions: TYK2 (TK), IPI00022353
T8 construct: determined in kinobeads assays with mass spectrometry detection of kinases as described previously; endogenous in cells; host or cells: cell lysate
Excerpt: as §2

kinases (kinome) [9] = biological target: T9, kinases (kinome) (Homo sapiens, UniProt P42684); test: as above; conditions: ARG (TK), IPI00329488
T9 construct: determined in kinobeads assays with mass spectrometry detection of kinases as described previously; endogenous in cells; host or cells: cell lysate
Excerpt: as §2

kinases (kinome) [10] = biological target: T10, kinases (kinome) (Homo sapiens, UniProt P07948); test: as above; conditions: LYN (TK), IPI00298625
T10 construct: determined in kinobeads assays with mass spectrometry detection of kinases as described previously; endogenous in cells; host or cells: cell lysate
Excerpt: as §2

kinases (kinome) [11] = biological target: T11, kinases (kinome) (Homo sapiens, UniProt Q9Y4K4); test: as above; conditions: KHS1 (STE), IPI00294842
T11 construct: determined in kinobeads assays with mass spectrometry detection of kinases as described previously; endogenous in cells; host or cells: cell lysate
Excerpt: as §2

T2 sequence (P78527 whole entry): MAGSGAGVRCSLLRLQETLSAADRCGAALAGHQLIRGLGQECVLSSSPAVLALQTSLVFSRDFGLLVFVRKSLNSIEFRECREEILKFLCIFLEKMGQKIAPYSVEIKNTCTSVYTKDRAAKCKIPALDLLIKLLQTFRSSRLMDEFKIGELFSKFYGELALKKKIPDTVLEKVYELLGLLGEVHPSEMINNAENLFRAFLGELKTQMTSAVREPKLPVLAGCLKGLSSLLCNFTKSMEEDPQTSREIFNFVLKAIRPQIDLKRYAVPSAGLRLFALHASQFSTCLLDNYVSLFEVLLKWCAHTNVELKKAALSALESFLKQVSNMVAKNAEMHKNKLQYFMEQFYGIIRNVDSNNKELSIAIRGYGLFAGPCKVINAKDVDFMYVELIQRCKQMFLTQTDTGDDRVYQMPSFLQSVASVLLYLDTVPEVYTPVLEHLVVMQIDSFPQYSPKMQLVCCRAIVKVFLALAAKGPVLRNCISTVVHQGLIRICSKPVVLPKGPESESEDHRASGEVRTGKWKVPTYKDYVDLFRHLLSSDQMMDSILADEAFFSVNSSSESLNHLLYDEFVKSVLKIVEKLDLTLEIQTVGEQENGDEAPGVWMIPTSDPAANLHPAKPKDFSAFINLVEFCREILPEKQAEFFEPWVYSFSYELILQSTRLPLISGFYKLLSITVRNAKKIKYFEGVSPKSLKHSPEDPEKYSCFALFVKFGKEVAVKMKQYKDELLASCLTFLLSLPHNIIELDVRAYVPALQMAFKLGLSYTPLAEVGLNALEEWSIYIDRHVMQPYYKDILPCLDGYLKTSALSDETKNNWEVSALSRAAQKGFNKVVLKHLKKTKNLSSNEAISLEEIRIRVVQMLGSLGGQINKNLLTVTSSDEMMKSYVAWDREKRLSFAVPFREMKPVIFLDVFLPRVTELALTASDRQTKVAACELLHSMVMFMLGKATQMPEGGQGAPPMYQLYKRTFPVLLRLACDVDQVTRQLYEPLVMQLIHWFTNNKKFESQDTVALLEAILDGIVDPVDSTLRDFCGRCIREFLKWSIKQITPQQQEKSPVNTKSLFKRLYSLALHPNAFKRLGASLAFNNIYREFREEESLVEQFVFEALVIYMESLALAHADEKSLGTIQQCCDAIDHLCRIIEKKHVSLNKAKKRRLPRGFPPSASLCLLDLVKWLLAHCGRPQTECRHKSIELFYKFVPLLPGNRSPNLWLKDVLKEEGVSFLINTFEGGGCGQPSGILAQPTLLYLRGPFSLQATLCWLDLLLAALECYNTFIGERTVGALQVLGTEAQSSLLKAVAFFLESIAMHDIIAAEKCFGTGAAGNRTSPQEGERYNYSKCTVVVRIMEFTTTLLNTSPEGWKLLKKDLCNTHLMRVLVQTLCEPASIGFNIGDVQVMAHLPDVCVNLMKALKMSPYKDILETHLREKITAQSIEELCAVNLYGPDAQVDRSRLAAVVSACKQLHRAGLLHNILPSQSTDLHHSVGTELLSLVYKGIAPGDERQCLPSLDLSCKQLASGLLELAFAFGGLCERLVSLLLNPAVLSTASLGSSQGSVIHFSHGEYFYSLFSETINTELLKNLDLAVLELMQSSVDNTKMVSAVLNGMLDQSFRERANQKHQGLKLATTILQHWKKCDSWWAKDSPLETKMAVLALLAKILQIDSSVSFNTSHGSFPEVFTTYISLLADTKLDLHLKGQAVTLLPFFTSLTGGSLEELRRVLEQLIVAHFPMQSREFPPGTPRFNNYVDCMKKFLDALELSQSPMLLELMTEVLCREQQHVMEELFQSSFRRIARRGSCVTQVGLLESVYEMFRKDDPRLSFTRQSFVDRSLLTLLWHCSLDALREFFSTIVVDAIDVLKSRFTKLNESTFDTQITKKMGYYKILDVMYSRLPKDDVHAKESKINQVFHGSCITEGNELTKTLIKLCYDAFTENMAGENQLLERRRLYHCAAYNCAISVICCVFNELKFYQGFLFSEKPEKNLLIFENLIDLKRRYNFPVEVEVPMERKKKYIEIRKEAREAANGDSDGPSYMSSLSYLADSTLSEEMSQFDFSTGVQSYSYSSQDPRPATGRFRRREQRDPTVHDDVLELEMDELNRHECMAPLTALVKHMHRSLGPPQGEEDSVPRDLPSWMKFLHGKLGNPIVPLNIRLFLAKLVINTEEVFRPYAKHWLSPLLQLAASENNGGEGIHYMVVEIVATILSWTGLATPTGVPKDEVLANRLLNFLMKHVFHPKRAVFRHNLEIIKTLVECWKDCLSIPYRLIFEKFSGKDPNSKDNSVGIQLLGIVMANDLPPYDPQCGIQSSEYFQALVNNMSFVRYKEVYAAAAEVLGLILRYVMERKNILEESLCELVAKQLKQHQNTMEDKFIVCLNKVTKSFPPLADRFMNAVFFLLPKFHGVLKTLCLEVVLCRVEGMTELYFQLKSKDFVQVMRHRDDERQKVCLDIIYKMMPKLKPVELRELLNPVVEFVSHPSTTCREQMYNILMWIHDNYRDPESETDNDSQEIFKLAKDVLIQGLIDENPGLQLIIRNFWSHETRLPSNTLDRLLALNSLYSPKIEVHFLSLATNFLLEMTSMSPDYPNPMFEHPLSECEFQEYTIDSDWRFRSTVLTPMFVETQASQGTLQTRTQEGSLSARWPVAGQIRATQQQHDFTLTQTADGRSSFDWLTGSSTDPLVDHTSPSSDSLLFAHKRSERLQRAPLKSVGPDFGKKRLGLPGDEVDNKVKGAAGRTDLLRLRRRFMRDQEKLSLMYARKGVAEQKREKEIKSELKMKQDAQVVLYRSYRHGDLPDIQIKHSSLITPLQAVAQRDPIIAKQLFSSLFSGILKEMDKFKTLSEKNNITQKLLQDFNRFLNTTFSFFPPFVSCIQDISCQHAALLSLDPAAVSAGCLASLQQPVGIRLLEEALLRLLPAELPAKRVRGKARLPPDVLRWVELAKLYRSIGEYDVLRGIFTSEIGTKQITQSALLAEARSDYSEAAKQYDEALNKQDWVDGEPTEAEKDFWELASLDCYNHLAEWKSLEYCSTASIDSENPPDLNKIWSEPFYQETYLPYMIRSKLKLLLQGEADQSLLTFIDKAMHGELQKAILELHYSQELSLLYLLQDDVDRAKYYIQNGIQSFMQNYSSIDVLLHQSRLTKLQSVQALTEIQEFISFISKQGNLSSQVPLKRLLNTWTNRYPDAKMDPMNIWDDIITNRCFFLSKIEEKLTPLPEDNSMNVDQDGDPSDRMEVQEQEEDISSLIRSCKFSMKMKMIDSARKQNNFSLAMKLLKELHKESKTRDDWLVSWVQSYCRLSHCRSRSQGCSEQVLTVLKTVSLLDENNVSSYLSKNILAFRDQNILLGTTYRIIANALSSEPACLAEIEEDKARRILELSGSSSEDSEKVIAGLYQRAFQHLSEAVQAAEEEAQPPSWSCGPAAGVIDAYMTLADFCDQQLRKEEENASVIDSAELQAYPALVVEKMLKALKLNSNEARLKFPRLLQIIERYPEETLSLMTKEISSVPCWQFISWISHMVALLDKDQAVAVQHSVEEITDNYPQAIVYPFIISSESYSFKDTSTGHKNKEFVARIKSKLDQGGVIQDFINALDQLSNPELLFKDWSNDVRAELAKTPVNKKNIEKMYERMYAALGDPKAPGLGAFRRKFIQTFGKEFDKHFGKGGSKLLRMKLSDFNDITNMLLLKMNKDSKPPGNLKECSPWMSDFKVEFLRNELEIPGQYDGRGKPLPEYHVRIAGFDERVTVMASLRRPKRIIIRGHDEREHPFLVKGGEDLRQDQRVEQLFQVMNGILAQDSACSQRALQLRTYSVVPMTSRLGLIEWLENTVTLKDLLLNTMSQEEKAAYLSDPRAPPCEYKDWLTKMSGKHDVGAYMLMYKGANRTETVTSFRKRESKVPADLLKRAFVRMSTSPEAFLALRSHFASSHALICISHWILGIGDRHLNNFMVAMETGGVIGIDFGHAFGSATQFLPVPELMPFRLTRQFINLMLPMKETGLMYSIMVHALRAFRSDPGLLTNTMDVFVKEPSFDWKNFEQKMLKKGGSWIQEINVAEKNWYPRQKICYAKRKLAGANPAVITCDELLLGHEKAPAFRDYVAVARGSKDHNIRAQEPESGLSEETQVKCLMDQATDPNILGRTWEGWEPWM
T10 sequence (P07948 whole entry): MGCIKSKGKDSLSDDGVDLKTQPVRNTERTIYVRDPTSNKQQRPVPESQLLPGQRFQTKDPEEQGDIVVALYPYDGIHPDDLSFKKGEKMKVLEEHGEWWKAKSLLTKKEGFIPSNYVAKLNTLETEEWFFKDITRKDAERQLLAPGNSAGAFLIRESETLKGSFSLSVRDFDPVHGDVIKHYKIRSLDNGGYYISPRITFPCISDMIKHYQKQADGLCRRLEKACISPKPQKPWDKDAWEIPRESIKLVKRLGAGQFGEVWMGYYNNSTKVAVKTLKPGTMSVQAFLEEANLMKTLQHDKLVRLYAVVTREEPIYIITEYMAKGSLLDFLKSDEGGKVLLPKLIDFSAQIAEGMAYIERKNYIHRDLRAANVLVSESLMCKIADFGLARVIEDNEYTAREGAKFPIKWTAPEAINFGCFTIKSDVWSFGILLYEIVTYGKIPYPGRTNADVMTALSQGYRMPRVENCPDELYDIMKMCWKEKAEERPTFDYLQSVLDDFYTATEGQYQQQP
T5 sequence (P49674 whole entry): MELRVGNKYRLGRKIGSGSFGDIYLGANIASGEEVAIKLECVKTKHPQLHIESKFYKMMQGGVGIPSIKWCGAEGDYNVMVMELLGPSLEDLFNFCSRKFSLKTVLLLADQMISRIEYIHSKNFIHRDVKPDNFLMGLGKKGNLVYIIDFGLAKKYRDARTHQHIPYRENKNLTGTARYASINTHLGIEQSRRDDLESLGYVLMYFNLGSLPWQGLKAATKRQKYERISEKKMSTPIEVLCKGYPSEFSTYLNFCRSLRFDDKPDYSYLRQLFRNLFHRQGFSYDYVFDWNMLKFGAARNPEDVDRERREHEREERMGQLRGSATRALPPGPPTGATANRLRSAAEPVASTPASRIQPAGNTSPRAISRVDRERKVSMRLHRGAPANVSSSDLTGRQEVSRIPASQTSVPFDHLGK

CCNC(=O)Nc1ccc(-c2cc(-c3ccccc3C#N)nc(N3CCOC[C@@H]3C)n2)cc1 [Example 8, (S)-1-(4-(6-(2-cyanophenyl)-2-(3-methylmorpholino)pyrimidin-4-yl)phenyl)-3-ethylurea]
pIC50 (mTOR; Table 2, Jurkat cell lysate, read-out: Inhibition values (IC50) mTor): 5.00 to 6.00
pIC50 (mTOR; Table 4, read-out: Inhibition values (IC50) mTOR): 5.00 to 6.00
pIC50 ([1]; Table 2, Jurkat cell lysate, read-out: Inhibition values (IC50) DNAPK): ≤ 5.00
pIC50 ([1]; Table 4, read-out: Inhibition values (IC50) DNAPK): ≤ 5.00
pIC50 (kinases (kinome) [2]): < 5.00
pIC50 (kinases (kinome) [3]): < 5.00
pIC50 (kinases (kinome) [4]): < 5.00
pIC50 (kinases (kinome) [5]): < 5.00
pIC50 (kinases (kinome) [6]): < 5.00
pIC50 (kinases (kinome) [7]): < 5.00
pIC50 (kinases (kinome) [8]): < 5.00
pIC50 (kinases (kinome) [9]): < 5.00
pIC50 (kinases (kinome) [10]): < 5.00
pIC50 (kinases (kinome) [11]): < 5.00
